According to EP0125508A1, “Method for stabilizing a detrusor muscle while increasing detrusor muscle strength” (United Pharmaceuticals, Inc., priority 1983, dated 1984):
Structures can show the parent of a compound that is named as a salt.

How the values were obtained:
Unstable Detrusor [1] = assay: Urodynamic studies, filling and voiding phase of the bladder (water cystometrogram), unstable detrusor; assay type: in vivo, women; details: for Compliance (compliance of the detrusor muscle) / P (maxflow): bladder pressure at maximum urine flow rate / P (opening): bladder pressure at the patient's initiating urination / P (voiding): bladder voiding pressure / Q (max) / R.U. / V (1st sense): bladder urine volume at the patient's first sensation to urinate / V (Urge): bladder urine volume at the patient's urge to urinate / V (max): maximum bladder urine volume: unstable detrusor
Procedure: (§1) Urodynamic studies were performed on 20 women having a mean age of 28 + 7 years. These studies incorporated water cystometrogram, UPP, and isometric tests. Control urodynamic testing without use of thiphenamil hydrochloride was undertaken in all subjects. The effects of a single dose of 400 mg and a single dose of 800 mg of thiphenamil hydrochloride given orally were compared with the control value for each subject. Specifically, the measurements taken included bladder capacity, residual volume, maximum detrusor voiding pressure, and isometric contractility during bladder filling and at bladder capacity. '
Figure 3 illustrates the voiding phase of the cystometrogram for a subject having an unstable detrusor muscle. Spontaneous detrusor contractions are shown to precipitate voiding at a bladder urine volume of about 210 ml. The onset of voiding is associated with involuntary contractions (series of detrusor pressure peaks between 0 and 50 seconds) that are suppressed by increased EMG activity.

Hydrolysis in water = assay type: physicochemical
Unstable Detrusor [2] = assay: Isometric test: maximum isometric pressure as a function of bladder volume, unstable detrusor; assay type: in vivo, women; details: for I (100): maximum isometric pressure: bladder urine volume 100 ml; for I (200): maximum isometric pressure: bladder urine volume 200 ml; for I (300): maximum isometric pressure: bladder urine volume 300 ml
Procedure: as §1

Stable Detrusor [3] = assay: Isometric test: maximum isometric pressure as a function of bladder volume, stable detrusor; assay type: in vivo, women; details: for I (100): maximum bladder isometric pressure / I (200): maximum bladder isometric pressure / I (300): maximum bladder isometric pressure / I (400): maximum bladder isometric pressure / I (500): maximum bladder isometric pressure / V (1st sense): bladder urine volume at the patient's first sensation to urinate / V (Max): maximum bladder urine volume / V (Urge): bladder urine volume at the patient's urge to urinate: stable detrusor; for I (100): maximum bladder isometric pressure: bladder urine volume 100 ml; for I (200): maximum bladder isometric pressure: bladder urine volume 200 ml; for I (300): maximum bladder isometric pressure: bladder urine volume 300 ml; for I (400): maximum bladder isometric pressure: bladder urine volume 400 ml; for I (500): maximum bladder isometric pressure: bladder urine volume 500 ml; for V (1st sense): bladder urine volume at the patient's first sensation to urinate / V (Max): maximum bladder urine volume / V (Urge): bladder urine volume at the patient's urge to urinate: isometric test
Procedure: as §1
(§2) Referring to Figure 1, data is shown taken from a subject having normal detrusor activity. The parameters measured include isometric detrusor pressure during bladder filling and while voiding under control conditions, EMG and . urine flow rate. Typical segments of a polygraph recording were obtained at a bladder volume of 100 ml (segment A), 200 ml (segment B) and the voiding at 30C ml (segment C). The parameters shown are detrusor pressure in cm H20, EMG (electromyogram) recording showing muscle electrical activity and urine flow rate.

Stable Detrusor [4] = assay: Urodynamic studies, filling and voiding phase of the bladder (water cystometrogram), stable detrusor; assay type: in vivo, women; details: for Compliance (compliance of the detrusor muscle) / P (maxflow): bladder pressure at maximum urine flow rate / P (opening): bladder pressure at the patient's initiating urination / P (voiding): bladder voiding pressure / Q (max) / R.U. / V (1st sense): bladder urine volume at the patient's first sensation to urinate / V (Urge): bladder urine volume at the patient's urge to urinate / V (max): maximum bladder urine volume: stable detrusor
Procedure: as §1, §2

[5] = one subject with unstable detrusor, 400 mg dose 30 minutes prior to recording
[6] = isometric test, single oral dose 400 mg

SMILES: CCN(CC)CCSC(=O)C(c1ccccc1)c1ccccc1 [Thiphenamil Hydrochloride, thiphenamil hydrochloride]
- detrusor instability (range of fluctuations of the EMG tracing, Figure 4) (Unstable Detrusor [1]; [5]): nearly eliminated
- height of the detrusor pressure peaks before voiding, Figure 4 versus Figure 3 (Unstable Detrusor [1]; [5]): general decrease in the height of those peaks
- pattern of detrusor instability (series of increasing detrusor pressure peaks leading up to voiding), Figure 4 versus Figure 3 (Unstable Detrusor [1]; [5]): shifted significantly to the right
- voiding (Figure 4) (Unstable Detrusor [1]; [5]): voluntary and complete
- Compliance (compliance of the detrusor muscle) (Unstable Detrusor [1]; single oral dose 400 mg): 0.002±0.001 liters/cm H2O
- P (maxflow): bladder pressure at maximum urine flow rate (Unstable Detrusor [1]; single oral dose 400 mg): 44.0±4.4 (3) cm H2O
- P (opening): bladder pressure at the patient's initiating urination (Unstable Detrusor [1]; single oral dose 400 mg): 30±12 (4) cm H2O
- P (voiding): bladder voiding pressure (Unstable Detrusor [1]; single oral dose 400 mg): 47±7 (4) cm H2O
- Q (max) (Unstable Detrusor [1]; single oral dose 400 mg): 15±1.9
- R.U. (Unstable Detrusor [1]; single oral dose 400 mg): 140±85 (2)
- V (1st sense): bladder urine volume at the patient's first sensation to urinate (Unstable Detrusor [1]; single oral dose 400 mg): 270±99 (3) ml
- V (Urge): bladder urine volume at the patient's urge to urinate (Unstable Detrusor [1]; single oral dose 400 mg): 345 ± 191 mL
- V (max): maximum bladder urine volume (Unstable Detrusor [1]; single oral dose 400 mg): 440±57 (2) ml
- Compliance (compliance of the detrusor muscle) (Unstable Detrusor [1]; single oral dose 800 mg): 0.0027±0.0004 liters/cm H2O
- P (maxflow): bladder pressure at maximum urine flow rate (Unstable Detrusor [1]; single oral dose 800 mg): 55.3±7.0 (3) cm H2O
- P (opening): bladder pressure at the patient's initiating urination (Unstable Detrusor [1]; single oral dose 800 mg): 44±11.3 (2) cm H2O
- P (voiding): bladder voiding pressure (Unstable Detrusor [1]; single oral dose 800 mg): 52.7±6.4 (3) cm H2O
- Q (max) (Unstable Detrusor [1]; single oral dose 800 mg): 18.0±1.8 (3)
- R.U. (Unstable Detrusor [1]; single oral dose 800 mg): 27.5±3.5 (3)
- V (1st sense): bladder urine volume at the patient's first sensation to urinate (Unstable Detrusor [1]; single oral dose 800 mg): 275±35 (3) ml
- V (Urge): bladder urine volume at the patient's urge to urinate (Unstable Detrusor [1]; single oral dose 800 mg): 325±35 (2) ml
- V (max): maximum bladder urine volume (Unstable Detrusor [1]; single oral dose 800 mg): 499±177 (3) ml
- stability in water (hydrolysis) (Hydrolysis in water): slowly hydrolizes in water
- I (100): maximum isometric pressure (Unstable Detrusor [2]; single oral dose 400 mg): 73±39 (14) cm H2O
- I (100): maximum isometric pressure (Unstable Detrusor [2]; single oral dose 800 mg): 78±53 cm H2O
- I (200): maximum isometric pressure (Unstable Detrusor [2]; single oral dose 400 mg): 44±14 (3) cm H2O
- I (200): maximum isometric pressure (Unstable Detrusor [2]; single oral dose 800 mg): 62±57 cm H2O
- I (300): maximum isometric pressure (Unstable Detrusor [2]; single oral dose 400 mg): 75±5 (2) cm H2O
- I (300): maximum isometric pressure (Unstable Detrusor [2]; single oral dose 800 mg): 96 (1) cm H2O
- V (1st sense): bladder urine volume at the patient's first sensation to urinate (Unstable Detrusor [2]; [6]): 270+99 (4) ml
- V (Urge): bladder urine volume at the patient's urge to urinate (Unstable Detrusor [2]; [6]): 355±53 (4) ml
- V (Urge): bladder urine volume at the patient's urge to urinate (Unstable Detrusor [2]; isometric test, single oral dose 800 mg): 423 ± 27.5 mL
- detrusor pressures in segments A and B (Figure 2 versus Figure 1) (Stable Detrusor [3]; one subject with normal detrusor, 400 mg dose, bladder volume 100 ml and 200 ml): considerably higher
- isometric detrusor pressure during the filling phase of the bladder (Stable Detrusor [3]; significant increase from control 36.1 + 26.9, dose not stated in the sentence (matches I (100), 400 mg, Table II)): 63.0 + 27.1 cm 1120
- I (100): maximum bladder isometric pressure (Stable Detrusor [3]; single oral dose 400 mg): 63.0±27.1 (13) cm H2O
- I (100): maximum bladder isometric pressure (Stable Detrusor [3]; single oral dose 800 mg): 74±34.6 (6) cm H2O
- I (200): maximum bladder isometric pressure (Stable Detrusor [3]; single oral dose 400 mg): 51.9±26.0 (14) cm H2O
- I (200): maximum bladder isometric pressure (Stable Detrusor [3]; single oral dose 800 mg): 65.0±37.8 (7) cm H2O
- I (300): maximum bladder isometric pressure (Stable Detrusor [3]; single oral dose 400 mg): 50.3±25.8 (12) cm H2O
- I (300): maximum bladder isometric pressure (Stable Detrusor [3]; single oral dose 800 mg): 63.4±26.2 (7) cm H2O
- I (400): maximum bladder isometric pressure (Stable Detrusor [3]; single oral dose 400 mg): 46.6±19.5 (10) cm H2O
- I (400): maximum bladder isometric pressure (Stable Detrusor [3]; single oral dose 800 mg): 50.0±27.5 (6) cm H2O
- I (500): maximum bladder isometric pressure (Stable Detrusor [3]; single oral dose 400 mg): 30.1±15.6 (8) cm H2O
- I (500): maximum bladder isometric pressure (Stable Detrusor [3]; single oral dose 800 mg): 34.0±14.4 (2) cm H2O
- V (1st sense): bladder urine volume at the patient's first sensation to urinate (Stable Detrusor [3]; single oral dose 400 mg): 358±106 (18) ml
- V (Max): maximum bladder urine volume (Stable Detrusor [3]; single oral dose 400 mg): 544±151 (11) ml
- V (Urge): bladder urine volume at the patient's urge to urinate (Stable Detrusor [3]; single oral dose 400 mg): 467±94 (18) ml
- V (1st sense): bladder urine volume at the patient's first sensation to urinate (Stable Detrusor [3]; single oral dose 800 mg): 253.3±96.9 (6) ml
- V (Max): maximum bladder urine volume (Stable Detrusor [3]; single oral dose 800 mg): 425±82 (10) ml
- V (Urge): bladder urine volume at the patient's urge to urinate (Stable Detrusor [3]; single oral dose 800 mg): 385±74.6 (7) ml
- detrusor muscle contractility (Stable Detrusor [4]; decrease from control 41.3 + 15.3, dose not stated in the sentence (matches P (voiding), 400 mg, Table 1)): 37.2 + 16.0 cm H20
- Compliance (compliance of the detrusor muscle) (Stable Detrusor [4]; single oral dose 400 mg): 0.002±0.001 liters/cm H2O
- P (maxflow): bladder pressure at maximum urine flow rate (Stable Detrusor [4]; single oral dose 400 mg): 37.9±9.1 (19) cm H2O
- P (opening): bladder pressure at the patient's initiating urination (Stable Detrusor [4]; single oral dose 400 mg): 25.4±13.3 (19) cm H2O
- P (voiding): bladder voiding pressure (Stable Detrusor [4]; single oral dose 400 mg): 37.2±16 (20) cm H2O
- Q (max) (Stable Detrusor [4]; single oral dose 400 mg): 16.7±4.4 (21)
- R.U. (Stable Detrusor [4]; single oral dose 400 mg): 132.3±121.4 (18)
- V (1st sense): bladder urine volume at the patient's first sensation to urinate (Stable Detrusor [4]; single oral dose 400 mg): 314±99 (19) ml
- V (Urge): bladder urine volume at the patient's urge to urinate (Stable Detrusor [4]; single oral dose 400 mg): 551±195 (19) ml
- V (max): maximum bladder urine volume (Stable Detrusor [4]; single oral dose 400 mg): 581+155 (19) ml
- Compliance (compliance of the detrusor muscle) (Stable Detrusor [4]; single oral dose 800 mg): 0.0025±0.003 liters/cm H2O
- P (maxflow): bladder pressure at maximum urine flow rate (Stable Detrusor [4]; single oral dose 800 mg): 49.5±14.8 (11) cm H2O
- P (opening): bladder pressure at the patient's initiating urination (Stable Detrusor [4]; single oral dose 800 mg): 39.1±12.2 (7) cm H2O
- P (voiding): bladder voiding pressure (Stable Detrusor [4]; single oral dose 800 mg): 65.1±19.1 (11) cm H2O
- Q (max) (Stable Detrusor [4]; single oral dose 800 mg): 27.7±9.0 (8)
- R.U. (Stable Detrusor [4]; single oral dose 800 mg): 95.0±72.2 (9)
- V (1st sense): bladder urine volume at the patient's first sensation to urinate (Stable Detrusor [4]; single oral dose 800 mg): 298±67.6 (11) ml
- V (Urge): bladder urine volume at the patient's urge to urinate (Stable Detrusor [4]; single oral dose 800 mg): 381±61 (11) ml
- V (max): maximum bladder urine volume (Stable Detrusor [4]; single oral dose 800 mg): 436±165 (11) ml
- bladder capacity (Stable Detrusor [4]; versus control): no significant increase
